Like-named read-outs stand apart in the source and are kept apart here.

Here are results for two compounds from patent US20120093948A1, “Nitric Oxide Treatments” (priority 2009, published 2012).

One series relates to Guinea Pig. To be noted: less than 1 ppm, duration 7 days; cited from earlier work.
The subject of a further series is man. The settings on record: cited from earlier work.
Another series deals with Mouse. The settings on record: less than 1 ppm, cited from earlier work.
In the next series the test system is Rabbit. The settings on record: less than 1 ppm, duration 24 days; cited from earlier work.
Another series relates to COPD patients. The settings on record: NO with oxygen, 3 month period, compared to oxygen alone; cited from earlier work.
The subject of series [1] is patients with pulmonary fibrosis. The settings on record: inhaled; cited from earlier work.
A further series deals with mice models of malaria. To be noted: mouse, in vivo; cited from earlier work.
For series [2], the system named is patients with pulmonary tuberculosis. To be noted: 80 ppm; cited from earlier work.
The subject of a further series is dogs. Description: Fourteen-day toxicity study using the delivery devices, dogs. It counts as in vivo. The settings on record: doses well in excess of 80 ppm NO.
In a further series the test system is rats. Description: Fourteen-day toxicity study using the delivery devices, rats. To be noted: doses well in excess of 80 ppm NO. Type of series: in vivo.
Series [3] concerns patents suffering massive pulmonary embolism. The settings on record: inhaled; cited from earlier work.
Series [4] has as its system patients with acute lung injury/acute respiratory distress syndrome. The settings on record: conventional iNO; cited from earlier work.
Series [5] relates to child with traumatic brain injury. The settings on record: NO therapy; cited from earlier work.
Series [6] concerns newborns with hypoxic respiratory failure. To be noted: inhaled; cited from earlier work.
The subject of series [7] is patients with cardiogenic shock due to RVMI. The settings on record: cited from earlier work.

For `[O]N=O` [NO2, nitrogen dioxide], the “OUTCOME(S)” value in the series on Guinea Pig is “Increased protein content of lung lavage fluid”; in the series with Mouse (duration 1 day), “Increased ascorbic acid levels in the liver”; in the series with Mouse (duration 90 days), “Depression in serum neutralizing”; in the series on Rabbit, “Structural changes in lung collagen fibers”. The OUTCOME with man (NO2 dose 0.1 ppm, exposure 60 min, asthmatics) was 13/16 asthmatics increase in reaction to; with man (NO2 dose 0.7-2.0 ppm, exposure 10 min) it was “Increase in inspiratory and expiratory flow”; in the series on man (NO2 dose 1.6-2.0 ppm, exposure 15 min) it was “Significant increase in total airway resistance”.
Consider `[N]=O` [NO, nitric oxide], for which, in the series on COPD patients, the oxygenation result is “did not result in a decrease”. For the same compound, in series [1], the arterial oxygen tension entry is “without a decrease”, the pulmonary vascular resistance result is reported as “decreased” and the ventilation perfusion matching entry is on record as “maintained”. Further, in the series with mice models of malaria, the neurological damage result is “protection” and the survival entry is given as “increased chance of survival”. For the same compound, the safety of delivery entry in series [2] is given as “safely delivered”. Moreover, the “Fourteen-day toxicity study outcome” value in the series on dogs was “successfully been completed”. For the same compound, the “Fourteen-day toxicity study outcome” value with rats is on record as “successfully been completed”. In addition, in series [3], the “systemic blood pressures, heart rate and gas exchange” value is given as “improvements”. For the same compound, the “outcomes (increased PaO2, survival)” value in series [4] is “positive outcomes”. Moreover, in series [5], the adverse cerebral effects entry was “No adverse cerebral effects”. In series [6], the arterial oxygen levels entry is listed as “safely improves” and the “need for Extracorporeal Membrane Oxygenation (ECMO)” value was “decreases”. In [7] (NO 80 ppm acutely), the “decreased mPAP” value is 12%, the “decreased mRAP” value is listed as 12% and the improved cardiac index is given as 24%. Besides, in series [7] (inhaled NO), the decrease shunt flow is listed as 56% and the systemic oxygen saturation result is recorded as “markedly improved”.
